{"source": "patent US20070219220A1", "about": "“Pyrazolopyrimidinethione Derivatives, Salts and Solvates Thereof, Preparation Methods and Use Thereof” (priority 2003, published 2007)", "key": {"rats with testis removed": {"tested_on": "rats with testis removed", "assay": "Duration of penile erection in rats with testis removed (Example 8)", "assay_type": "in vivo, wistar rats"}, "[1]": {"assay": "Preliminary acute toxicity, Bliss method (Example 13)", "details": "rat, in vivo, oral and intragastric administration, rats", "experimental": "Experimental methods: the toxicity test was conducted by oral and intragastric administration of the pyrazolopyrimidinethione derivatives of the invention using the Bliss method."}}}
{"smiles": "CCCc1nn(C)c2c(=S)[nH]c(-c3cc(S(=O)(=O)N4C[C@@H](C)N[C@@H](C)C4)ccc3OCC)nc12", "note": "[Compound (2), 5-[2-ethoxy-5-(cis-3,5-dimethylpiperazin-1-sulfonyl)phenyl]-1-methyl-3-n-propyl-1,6-dihydro-7H-pyrazolo[4,3-d]pyrimidin-7-thione]", "values": [{"measurement": "Penile swelling time", "setting": "rats with testis removed; oral 10 mg/kg, at 1 h after administration", "result": "679.6 ± 13.2", "unit": "s"}, {"measurement": "Penile swelling time", "setting": "rats with testis removed; oral 10 mg/kg, at 3 h after administration", "result": "544.7 ± 166.9", "unit": "s"}, {"measurement": "Penile swelling time", "setting": "rats with testis removed; oral 10 mg/kg, at 6 h after administration", "result": "268.7 ± 146.2", "unit": "s"}, {"measurement": "Penile swelling time", "setting": "rats with testis removed; oral 10 mg/kg, at 24 h after administration", "result": "98.6 ± 57.9", "unit": "s"}, {"measurement": "Penile swelling time", "setting": "rats with testis removed; oral 10 mg/kg, value before administration", "result": "67.7 ± 12.3", "unit": "s"}, {"measurement": "Penile swelling time", "setting": "rats with testis removed; oral 20 mg/kg, at 1 h after administration", "result": "1514.8 ± 258.9", "unit": "s"}, {"measurement": "Penile swelling time", "setting": "rats with testis removed; oral 20 mg/kg, at 3 h after administration", "result": "906.0 ± 406.7", "unit": "s"}, {"measurement": "Penile swelling time", "setting": "rats with testis removed; oral 20 mg/kg, at 6 h after administration", "result": "275.8 ± 154.2", "unit": "s"}, {"measurement": "Penile swelling time", "setting": "rats with testis removed; oral 20 mg/kg, at 24 h after administration", "result": "201.0 ± 85.7", "unit": "s"}, {"measurement": "Penile swelling time", "setting": "rats with testis removed; oral 20 mg/kg, value before administration", "result": "82.4 ± 26.6", "unit": "s"}, {"measurement": "how long the penile swelling effect lasts after administration", "setting": "rats with testis removed; oral 40 mg/kg and 20 mg/kg", "result": "up to 24 hours"}, {"measurement": "Penile swelling time", "setting": "rats with testis removed; oral 40 mg/kg, at 1 h after administration", "result": "2187.1 ± 547.8", "unit": "s"}, {"measurement": "Penile swelling time", "setting": "rats with testis removed; oral 40 mg/kg, at 3 h after administration", "result": "783.0 ± 329.2", "unit": "s"}, {"measurement": "Penile swelling time", "setting": "rats with testis removed; oral 40 mg/kg, at 6 h after administration", "result": "678.7 ± 221.8", "unit": "s"}, {"measurement": "Penile swelling time", "setting": "rats with testis removed; oral 40 mg/kg, at 24 h after administration", "result": "194.0 ± 65.1", "unit": "s"}, {"measurement": "Penile swelling time", "setting": "rats with testis removed; oral 40 mg/kg, value before administration", "result": "84.0 ± 18.4", "unit": "s"}, {"measurement": "LD50", "setting": "[1]", "result": "> 3000", "unit": "mg/kg"}]}
